Like-named read-outs stand apart in the source and are kept apart here.
What was measured:
[1] = tested on: IL-4 stimulated expression of CD23 in human Ramos B cells (JAK-1 and JAK-3); assay: Assay for Ramos B-Cell Line Stimulated with IL-4 (CD23 upregulation, FACS); format: cell-based; details: Ramos B-cell line stimulated with IL-4, CD23 expression by FACS, read-out: IC50, Example 41
In short: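 Read-out is surface CD23 by FACS after anti-CD23-PE staining, giving IC50. Before this, cells were stimulated 20-24 h with 50 units/mL (final) human IL-4, following 1 h compound or vehicle pre-treatment at 37 °C; log-phase Ramos B cells, 5×10^4 per well in 5% serum RPMI.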

[2] = tested on: up-regulation of ICAM-1 (CD54) by IFNγ in A549 lung epithelial cells; assay: A549 Epithelial Line Stimulated with IFNγ (ICAM-1 surface expression, FACS); format: cell-based, human; details: ICAM-1 expression by FACS, read-out: IC50, Example 43
Text: The activity of the compounds of the invention may additionally be characterized by assaying the effect of the 2,4-substituted pyrimidinediamine compounds described herein on A549 lung epithelial cells and U937 cells. A549 lung epithelial cells and U937 cells up-regulate ICAM-1 (CD54) surface expression in response to a variety of different stimuli. Therefore, using ICAM-1 expression as readout, test compound effects on different signaling pathways can be assessed in the same cell type. Stimulation with IL-1β through the IL-1β receptor activates the TRAF6/NFκB pathway resulting in up-regulation of ICAM-1. IFNγ induces ICAM-1 up-regulation through activation of the JAK1/JAK2 pathway. The up-regulation of ICAM-1 can be quantified by flow cytometry across a compound dose curve and EC50, values are calculated. An exemplary assays of this type are described in greater detail in Examples 43 and 44
A549 lung epithelial cells up-regulate ICAM-1 (CD54) surface expression in response to a variety of different stimuli. Therefore, using ICAM-1 expression as readout, compound effects on different signaling pathways can be assessed in the same cell type. IFNγ up-regulates ICAM-1 through activation of the JAK/Stat pathway. In this example, the up-regulation of ICAM-1 by IFNγ was assessed.
The A549 lung epithelial carcinoma cell line originated from the American Type Culture Collection. Routine culturing was with F12K media (Mediatech Inc., Lenexa, KS, Cat. No. 10-025-CV) with 10% fetal bovine serum, 100 I.U. penicillin and […] streptomycin (complete F12k media). Cells were incubated in a humidified atmosphere of 5% CO2 at 37° C. Prior to use in the assay, A549 cells were washed with PBS and trypsinized (Mediatech Inc., Cat. No. 25-052-CI) to lift the cells. The trypsin cell suspension was neutralized with complete F12K media and centrifuged to pellet the cells. The cell pellet was resuspended in complete F12K media at a concentration of 2.0×10^5/mL. Cells were seeded at 20,000 per well, 100 μL total volume, in a flat bottom tissue culture plate and allowed to adhere overnight.
On day two, A549 cells were pre-incubated with a 2,4-substituted pyrimidinediamine test compound or DMSO (control) (Sigma-Aldrich, St. Louis, MO, Catalog No. D2650) for 1 hour. The cells were then stimulated with IFNγ (75 ng/mL) (Peprotech Inc., Rocky Hill, NJ, Cat. No. 300-02) and allowed to incubate for 24 hours. The final test compound dose range was 30 μM to 14 nM in 200 μL F12K media containing 5% FBS, 0.3% DMSO.
On day three, the cell media was removed and the cells were washed with 200 μL PBS (phosphate buffered saline). Each well was trypsinized to dissociate the cells, then neutralized by addition of 200 μL complete F12K media. Cells were pelleted and stained with an APC conjugated mouse anti-human ICAM-1 (CD54) (BD Pharmingen, San Diego, CA, Catalog #559771) antibody for 20 minutes at 4° C. Cells were washed with ice cold FACS buffer (PBS+2% FBS) and surface ICAM-1 expression was analyzed by flow cytometry. Detection was performed using a BD LSR I System Flow Cytometer, purchased from BD Biosciences of San Jose, California Events were gated for live scatter and the geometric mean was calculated (Becton-Dickinson CellQuest software version 3.3, Franklin Lakes, NJ). Geometric means were plotted against the compound concentration to generate a dose response curve.

[3] = A549 epithelial line stimulated with IFNγ
[4] = Homo sapiens, A549, A549 epithelial line stimulated with IFNγ

IC50 [1] | IC50 [2, 3] | IC50 ([1]; Homo sapiens, Ramos) | IC50 [2, 4] | SMILES
0.781 µM | 30.7 µM |  |  | CN1CCN(S(=O)(=O)c2ccc(Nc3ncc(F)c(Nc4ccc(CC#N)cc4)n3)cc2)CC1 [III-6, N4-(4-Cyanomethyl)phenyl-5-fluoro-N2-[4-(4-methylpiperazin-1-yl)sulfonyl]phenyl-2,4-pyrimidinediamine]
0.522 µM | 21 µM |  |  | CN1CCN(S(=O)(=O)c2ccc(Nc3ncc(F)c(Nc4cccc(OCC#N)c4)n3)cc2)CC1 [Compound I-6, N4-(3-Cyanomethoxy)phenyl-5-fluoro-N2-[4-(4-methylpiperazin-1-yl)sulfonyl]phenyl-2,4-pyrimidinediamine]
1.65 µM | 29.9 µM |  |  | CN1CCN(S(=O)(=O)c2cccc(Nc3ncc(F)c(Nc4cccc(OCC#N)c4)n3)c2)CC1 [Compound I-5, N4-(3-Cyanomethoxy)phenyl-5-fluoro-N2-[3-(4-methylpiperazin-1-yl)sulfonyl]phenyl-2,4-pyrimidinediamine]
 |  | 0.0374 µM | 10.2 µM | N#CCOc1ccc(Nc2nc(Nc3ccc(S(N)(=O)=O)cc3)ncc2F)cc1Cl [Compound I-41, N2-(4-Aminosulfonylphenyl)-N4-(3-chloro-4-cyanomethoxyphenyl)-5-fluoro-2,4-pyrimidinediamine]
 |  | 0.308 µM | 31 µM | Cc1cc(Nc2nc(Nc3ccc(S(=O)(=O)N4CCN(C)CC4)cc3)ncc2F)cc(C)c1OCC#N [Compound I-40, N4-(4-Cyanomethoxy-3,5-dimethylphenyl)-5-fluoro-N2-[4-(4-methylpiperazin-1-yl)sulfonylphenyl]-2,4-pyrimidinediamine]

From US11827628B2, “Compositions and methods for inhibition of the JAK pathway” (Rigel Pharmaceuticals, Inc., priority 2005, dated 2023)
